Laboratory results reported in ChEMBL document CHEMBL5385900, “New insights in the development of positive allosteric modulators of α-amino-3-hydroxy-5-methyl-4-isoxazolepropionic acid (AMPA) receptors belonging to 3,4-dihydro-2H-1,2,4-benzothiadiazine 1,1-dioxides: Introduction of (mono/difluoro)methyl groups at the 2-position of the thiadiazine ring” (Eur J Med Chem, 2023).
Active and inactive are the calls of the source. The rule behind the calls is not given here.

Columns and labels:
[1] = biological target: Glutamate receptor ionotropic AMPA (Homo sapiens, UniProt P42261+P42262+P42263+P48058); experiment: Positive allosteric modulation at AMPAR in HEK293 cells expressing GluA2Q assessed as glutamate induced calcium influx; assay type: cell-based
[2] = biological target: T1, Glutamate receptor ionotropic, AMPA (Rattus norvegicus) (UniProt P19491+P19492+P19493+P19490); experiment: Positive allosteric modulation at AMPAR in rat primary cortical cells assessed as concentration required for 2 fold increase in AMPA induced current amplitude by FlipR assay; assay type: cell-based; settings: Primary cortical neuron, filed as positive allosteric modulator
[3] = biological target: T1, Glutamate receptor ionotropic, AMPA (Rattus norvegicus); experiment: Positive allosteric modulation at AMPAR in rat hippocampal assessed as increase in AMPA induced noradrenaline release; parameters: concentration or dose not given beside the values
Mus musculus [4] = experiment: Cognition enhancing effect in C57BL/6 mouse assessed as increase in performance of spontaneous alteration at 0.1 mg/kg, ip after 1 hr by T-maze test; assay type: functional, organism-based
[5] = Toxicity in NMR1 mouse assessed as pro-convulsant effect at 100 mg/kg, po; assay type: organism-based; settings: in vivo
[6] = biological target: T1, Glutamate receptor ionotropic, AMPA (Rattus norvegicus); experiment: Positive allosteric modulation at AMPAR in rat primary cortical cells assessed as concentration required for 2 fold increase in AMPA induced current amplitude by FDSS fluorescence assay; assay type: cell-based; settings: Primary cortical neuron, filed as positive allosteric modulator
[7] = Toxicity in NMR1 mouse assessed as pro-convulsant effect at 30 mg/kg, po; assay type: organism-based; settings: in vivo
Rattus norvegicus = experiment: Cognition enhancing effect in Wistar rat assessed as increase in long-term potentiation of synaptic response at 10 mg/kg, ip pretreated for 1 hr followed by tetanic stimulation and measured for 3 hrs; assay type: functional, organism-based; settings: time 4.0 hrs
[8] = biological target: Glutamate receptor ionotropic AMPA (Homo sapiens) (UniProt P48058+P42263+P42262+P42261); experiment: Positive allosteric modulation at AMPAR in HEK293 cells expressing GluA2Q assessed as glutamate induced calcium influx relative to control; assay type: cell-based; settings: filed as positive allosteric modulator
[9] = biological target: T1, Glutamate receptor ionotropic, AMPA (Rattus norvegicus); experiment: Positive allosteric modulation at AMPAR in rat hippocampal assessed as increase in AMPA induced noradrenaline release by measuring concentration required for 2 fold increase in noradrenaline release; settings: filed as positive allosteric modulator
Mus musculus [10] = experiment: Cognition enhancing effect in CD1 mouse assessed as increase in exploration time for novel object at 3 mg/kg, po after 1 hr by object recognition test (reference value: 40%); assay type: functional
Mus musculus [11] = experiment: Cognition enhancing effect in CD1 mouse assessed as increase in exploration time for novel object at 1 mg/kg, po after 1 hr by object recognition test (reference value: 40%); assay type: functional
Mus musculus [12] = experiment: Cognition enhancing effect in C57BL/6 mouse assessed as increase in performance of spontaneous alteration at 0.3 mg/kg, ip after 1 hr by T-maze test; assay type: functional, organism-based
[13] = filed as positive allosteric modulator

EC50 [1]	EC [2]	Activity [3, 13]	EC [6]	Compound	other results
> 100 µM	65 µM			CC1N(C2CC2)c2ccc(Cl)cc2S(=O)(=O)N1C (centres undefined)	Activity [3]: < 100%
2.19 µM	2.1 µM	394%	1.5 µM	O=S1(=O)c2cc(Cl)ccc2N(C2CC2)CN1CF	Activity (Mus musculus [4]): Active; Activity [5]: Non-Toxic; Activity [7]: Non-Toxic; Activity (Rattus norvegicus): Active; Emax [8]: 90%; EC [9]: 5 µM; Activity (Mus musculus [10]): 78%; Activity (Mus musculus [11]): 64%
8.71 µM		135%	1.4 µM	CCN1c2ccc(F)cc2S(=O)(=O)N(C)C1C (centres undefined)	
57.5 µM	9.3 µM			CN1CN(C2CC2)c2ccc(F)cc2S1(=O)=O	Activity [3]: < 100%
0.794 µM	2.2 µM	311%	0.7 µM	O=S1(=O)NCN(C2CC2)c2ccc(Cl)cc21	Activity [7]: Non-Toxic; Activity (Rattus norvegicus): Active; Emax [8]: 100%; EC [9]: 4.5 µM; Activity (Mus musculus [12]): Active; Activity (Mus musculus [10]): 79%; Activity (Mus musculus [11]): 82%
> 100 µM	13.4 µM			CN1CN(C2CC2)c2ccc(Cl)cc2S1(=O)=O	
> 100 µM	70.9 µM			CC1N(C2CC2)c2ccc(F)cc2S(=O)(=O)N1C (centres undefined)	Activity [3]: < 100%
> 100 µM			11.2 µM	CCN1C(C)N(C)c2ccc(Cl)cc2S1(=O)=O (centres undefined)	Activity [3]: < 100%
2.14 µM	2.5 µM	329%		CC1N(C2CC2)c2ccc(Cl)cc2S(=O)(=O)N1CF (centres undefined)	
81.3 µM	4.3 µM	112%	0.8 µM	CC1N(C)c2ccc(Cl)cc2S(=O)(=O)N1C (centres undefined)	
0.275 µM	0.2 µM	230%	0.3 µM	O=S1(=O)NCN(C2CC2)c2ccc(F)cc21	
0.282 µM	0.6 µM	427%		O=S1(=O)c2cc(F)ccc2N(C2CC2)CN1CF	
> 100 µM			12.2 µM	CCN1c2ccc(Cl)cc2S(=O)(=O)N(CC)C1C (centres undefined)	Activity [3]: < 100%
16.6 µM	6.9 µM	345%		O=S1(=O)c2cc(F)ccc2N(C2CC2)CN1C(F)F	
31.6 µM	6.2 µM	103%		CCN1c2ccc(Cl)cc2S(=O)(=O)N(C)C1C (centres undefined)	
15.1 µM	4.1 µM	167%		CC1N(C)c2ccc(F)cc2S(=O)(=O)N1C (centres undefined)	
> 100 µM		340%	6 µM	O=S1(=O)c2cc(Cl)ccc2N(C2CC2)CN1C(F)F	
